Measured values: US10828315B2 (Madrigal Pharmaceuticals, Inc., priority 2013, dated 2020)
Where two headings read alike, the source gives them in different places.

How the values were obtained:
[1] = Artificial membrane permeability assay (PAMPA); conditions: same protocol, second table
Protocol: Pre-coated PAMPA plates were warmed to room temperature for at least 30 minutes prior to adding assay components.
Stock solutions were prepared with the SDC-TRAP molecules to be tested. In order to make a working solution, either 50 μL of 100 μM Stock in DMSO+950 μL of PBS or 50 μL of 200 μM stock was added to 96 deep well plate, resulting in a 5 μM final concentration or a 10 μM final concentration, respectively. 3000 μL of the working solution containing each compound to be tested was added to the appropriate well of a donor PAMPA plate. 200 μL of PBS was added into the corresponding wells of an acceptor PAMPA plates.
The acceptor plate was lowered onto the donor plate and allowed to incubate for five hours. After five hours, a 50 μL aliquot was removed from each well of each plate and added into a new 96 deep-well plate.
100 μL of methanol containing an internal standard was added to each aliquot and analyzed by LC/MS.
In order to calculate the permeability for each SDC-TRAP molecule and the control molecules, the following formula was used:

HER2 = HER2 degradation assay with BT-474 cell line (Example 12, FACS); format: cell-based, human
[2] = Mouse plasma stability protocol, up to 1 h (Examples 16-18)
[3] = Tissue Distribution Data for SDC-TRAP-0154
[4] = % Remaining of parent after 1 h incubation in mouse plasma at 37° C. (10 μM)

Row | SMILES | Mass Retention [1] [%] | IC50 (HER2) [nM] | % Remaining (1 h) [2, 4] [%] | % Remaining (1 h, 37° C.) ([2]; mouse plasma, 37° C.) [%] | % Remaining (1 h) ([2]; mouse plasma, 37° C., 10 μM) [%] | Plasma Conc. ([3]; Time (h) 0.083) [µM] | Tumor Conc. ([3]; Time (h) 0.083) | Tumor/Plasma Ratio ([3]; Time (h) 0.083) | Plasma Conc. ([3]; Time (h) 1) [µM] | Tumor Conc. ([3]; Time (h) 1) | Tumor/Plasma Ratio ([3]; Time (h) 1) | Plasma Conc. ([3]; Time (h) 6) [µM] | Tumor Conc. ([3]; Time (h) 6) | Tumor/Plasma Ratio ([3]; Time (h) 6) | Plasma Conc. ([3]; Time (h) 24) [µM] | Tumor Conc. ([3]; Time (h) 24) | Tumor/Plasma Ratio ([3]; Time (h) 24) | Plasma Conc. ([3]; Time (h) 48) [µM] | Tumor Conc. ([3]; Time (h) 48) | Tumor/Plasma Ratio ([3]; Time (h) 48)
1 | CCNC(=O)c1nnc(-c2cc(C(C)C)c(O)cc2O)n1-c1ccc2c(ccn2CCC2CCN(C(=O)O[C@]3(CC)C(=O)OCc4c3cc3n(c4=O)Cc4c-3nc3ccc(O)cc3c4CC)CC2)c1 [SDC-TRAP-0208, (S)-4,11-diethyl-9-hydroxy-3,14-dioxo-3,4,12,14-tetrahydro-1H-pyrano[3′,4′: 6,7]indolizino[1,2-b]quinolin-4-yl 4-(2-(5-(3-(2,4-dihydroxy-5-isopropylphenyl)-5-(ethylcarbamoyl)-4H-1,2,4-triazol-4-yl)-1H-indol-1-yl)ethyl)piperidine-1-carboxylate] | 25.0 | 480 | 86.1 | 86.1 | – | – | – | – | – | – | – | – | – | – | – | – | – | – | – | –
2 | CCNC(=O)c1nnc(-c2cc(C(C)C)c(O)cc2O)n1-c1ccc2c(ccn2CCC2CCN(C(=O)Oc3ccc4nc5c(c(CC)c4c3)Cn3c-5cc4c(c3=O)COC(=O)[C@]4(O)CC)CC2)c1 [SDC-TRAP-0205, (S)-4,11-diethyl-4-hydroxy-3,14-dioxo-3,4,12,14-tetrahydro-1H-pyrano[3′,4′:6,7]indolizino[1,2-b]quinolin-9-yl 4-(2-(5-(3-(2,4-dihydroxy-5-isopropylphenyl)-5-(ethylcarbamoyl)-4H-1,2,4-triazol-4-yl)-1H-indol-1-yl)ethyl)piperidine-1-carboxylate] | 10.9 | 564 | 58.4 | 58.4 | – | – | – | – | – | – | – | – | – | – | – | – | – | – | – | –
3 | CCc1c2c(nc3ccc(O)cc13)-c1cc3c(c(=O)n1C2)COC(=O)[C@@]3(CC)OC(=O)N1CCC(CCn2ccc3cc(-n4c(O)nnc4-c4cc(C(C)C)c(O)cc4O)ccc32)CC1 [SDC-TRAP-0064, (S)-4,11-diethyl-9-hydroxy-3,14-dioxo-3,4,12,14-tetrahydro-1H-pyrano[3′,4′:6,7]indolizino[1,2-b]quinolin-4-yl 4-(2-(5-(3-(2,4-dihydroxy-5-isopropylphenyl)-5-hydroxy-4H-1,2,4-triazol-4-yl)-1H-indol-1-yl)ethyl)piperidine-1-carboxylate] | 48.4 | 1130 | 91.5 | 91.5 | 91.5 | – | – | – | – | – | – | – | – | – | – | – | – | – | – | –
4 | CCNC(=O)c1nnc(-c2cc(C(C)C)c(O)cc2O)n1-c1ccc(Oc2ccc(C(=O)N3CCC(C(=O)OC4(CC)C(=O)OCc5c4cc4n(c5=O)Cc5c-4nc4ccc(O)cc4c5CC)CC3)cc2)cc1 (stereo not drawn) [SDC-TRAP-0154, 4,11-Diethyl-9-hydroxy-3,14-dioxo-3,4,12,14-tetrahydro-1H-pyrano[3′,4′:6,7]indolizino[1,2-b]quinolin-4-yl 1-(4-(4-(3-(2,4-dihydroxy-5-isopropylphenyl)-5-(ethylcarbamoyl)-4H-1,2,4-triazol-4-yl)phenoxy)benzoyl)piperidine-4-carboxylate] | 10.3 | 191 | – | – | – | 928 | 11.8 nmol/g of tissue | 0.01 | 251 | 14.1 nmol/g of tissue | 0.06 | 5.08 | 9.46 nmol/g of tissue | 1.86 | 0.198 | 2.35 nmol/g of tissue | 11.9 | 0.0218 | 1.88 nmol/g of tissue | 86.0
